{"source": "PubChem BioAssay AID1259411", "about": "(Chemical Carcinogenesis Research Information System (CCRIS), 2018)", "system": "rodent carcinogenicity bioassays, tumor incidence", "assay": "CCRIS carcinogenicity studies", "summary_of_the_method": "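Archive of carcinogenicity, mutagenicity, tumor promotion and tumor inhibition results drawn from journals, NCI reports and other sources, expert-reviewed; covers 1985-2011 and is no longer updated.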", "note": "Activity calls are given as the source filed them. No rule for the calls is given here."}
{"smiles": "Nc1ccc2c(c1)Cc1ccccc1-2", "values": [{"measurement": "carcinogen call", "setting": "Species: MOUSE, Strain/Sex: MALE,FEMALE, Route: DERMAL, Dose: 4% SOLN IN ACETONE, 90 APPLICATIONS (TOTAL DOSE: 270 MG), Tumor Site: Type of Lesion: LIVER: HEPATOMA, INTESTINES", "value": "active; positive"}, {"measurement": "carcinogen call", "setting": "Species: RAT, Strain/Sex: F344/MALE, Route: INJECTION, Dose: 0, 1 UMOL IN 0.5 ML OF SOLUTION CONTAINING 0.4 ML PHOSPHATE BUFFERED SALINE/ GENTAMYCIN (PH 7) AND 0.1 ML DMSO INJECTED", "value": "inactive; negative"}, {"measurement": "carcinogen call", "setting": "Species: RAT, Strain/Sex: HOLTZMAN/FEMALE, Route: ORAL, Dose: 1.62 MMOL/KG IN DIET, Tumor Site: Type of Lesion: MAMMARY GLAND, EAR (DUCT)", "value": "active; positive"}, {"measurement": "carcinogen call", "setting": "Species: RAT, Strain/Sex: HOLTZMAN/MALE, Route: ORAL, Dose: 1.62 MMOL/KG IN DIET, Tumor Site: Type of Lesion: LIVER, EAR (DUCT), INTESTINES (SMALL), Tumor Site: Type of Lesion: LIVER, EAR (DUCT), INTESTINES (SMALL)", "value": "active; positive"}, {"measurement": "carcinogen call", "setting": "Species: RAT, Strain/Sex: WISTAR/MALE, Route: DERMAL, Dose: 4% SOLN IN ACETONE 3/WK FOR 30 WK (TOTAL DOSE: 270 MG), Tumor Site: Type of Lesion: LIVER: HEPATOCELLULAR CARCINOMA, EAR (ZYMBAL GLAND): CARCINOMA", "value": "active; positive"}]}
{"smiles": "[Cr]", "values": [{"measurement": "carcinogen call", "setting": "Species: HUMAN, Route: INHALATION, ORAL, Tumor Site: Type of Lesion: LUNG", "value": "active; positive"}]}
{"smiles": "CCSC(=O)N(CC(C)C)CC(C)C", "values": [{"measurement": "carcinogen call", "setting": "Species: Mouse, Strain/Sex: CD-1/Female (50/sex/group), Route: Oral, Dose: 0, 20, 80, 320 mg/kg/d in diet for 2 yrs, Dose: 0, 20, 80, 320 mg/kg/d in diet for 2 yrs", "value": "inactive; negative; probable purity of 97-98%"}, {"measurement": "carcinogen call", "setting": "Species: Mouse, Strain/Sex: CD-1/Male (50/sex/group), Route: Oral, Dose: 0, 20, 80, 320 mg/kg/d in diet for 2 yrs, Dose: 0, 20, 80, 320 mg/kg/d in diet for 2 yrs", "value": "inactive; negative; probable purity of 97-98%"}, {"measurement": "carcinogen call", "setting": "Species: Rat, Strain/Sex: Sprague-Dawley/Female (70/sex/group), Route: Oral, Dose: 0, 50, 100, 200, 400 mg/kg/d in diet for 12, 18, or 24 mo, Dose: 0, 50, 100, 200, 400 mg/kg/d in diet for 12, 18, or 24 mo", "value": "inactive; negative; probable purity of 97-98% (there were probably 10 animals in each inte"}, {"measurement": "carcinogen call", "setting": "Species: Rat, Strain/Sex: Sprague-Dawley/Male (70/sex/group), Route: Oral, Dose: 0, 50, 100, 200, 400 mg/kg/d in diet for 12, 18, or 24 mo, Dose: 0, 50, 100, 200, 400 mg/kg/d in diet for 12, 18, or 24 mo", "value": "inactive; negative; probable purity of 97-98% (there were probably 10 animals in each inte"}]}
{"smiles": "ClCOCCOCCl", "values": [{"measurement": "carcinogen call", "setting": "Species: MOUSE, Strain/Sex: ICR/HA SWISS/FEMALE, Route: DERMAL, Dose: 0, 1 MG IN 0.1 ML CYCLOHEXANE 3/WK FOR 502 D (STUDY DURATION: 570 D), Tumor Site: Type of Lesion: SKIN: PAPILLOMA, SKIN: SQUAMOUS CARCINOMA", "value": "active; positive"}, {"measurement": "carcinogen call", "setting": "Species: MOUSE, Strain/Sex: ICR/HA SWISS/FEMALE, Route: INTRAPERITONEAL, Dose: 0, 0.3 MG IN 0.05 ML TRICAPRYLIN 1/WK FOR 546 D (STUDY DURATION: 570 D), Tumor Site: Type of Lesion: PERITONEUM: SARCOMA", "value": "active; positive"}, {"measurement": "carcinogen call", "setting": "Species: MOUSE, Strain/Sex: ICR/HA SWISS/FEMALE, Route: SUBCUTANEOUS, Dose: 0, 0.3 MG IN 0.05 ML TRICAPRYLIN 1/WK FOR 569 D (STUDY DURATION: 570 D), Tumor Site: Type of Lesion: INJECTION SITE: SARCOMA", "value": "active; positive"}]}
{"smiles": "C=CC(=O)OC", "values": [{"measurement": "carcinogen call", "setting": "Species: RAT, Strain/Sex: SPRAGUE-DAWLEY/FEMALE, Route: INHALATION, Dose: 0, 15, 45, 135 PPM 6 HR/D 5 D/WK FOR 24 MO (STUDY DURATION: 130 WK), Dose: 0, 15, 45, 135 PPM 6 HR/D 5 D/WK FOR 24 MO (STUDY DURATION: 130 WK)", "value": "inactive; negative"}, {"measurement": "carcinogen call", "setting": "Species: RAT, Strain/Sex: SPRAGUE-DAWLEY/MALE, Route: INHALATION, Dose: 0, 15, 45, 135 PPM 6 HR/D 5 D/WK FOR 24 MO (STUDY DURATION: 130 WK), Dose: 0, 15, 45, 135 PPM 6 HR/D 5 D/WK FOR 24 MO (STUDY DURATION: 130 WK)", "value": "inactive; negative"}]}
{"smiles": "Cc1ccc(O)c(O)c1", "values": [{"measurement": "carcinogen call", "setting": "Species: RAT, Strain/Sex: F344/FEMALE, Route: ORAL, Dose: 0, 2% IN DIET FOR 104 WK (STUDY DURATION: 104 WK), Tumor Site: Type of Lesion: FORESTOMACH: PAPILLOMA, SQUAMOUS CELL CARCINOMA, GLANDULAR STOMACH: ADENOMA, ADENOCARCINOMA", "value": "active; positive"}, {"measurement": "carcinogen call", "setting": "Species: RAT, Strain/Sex: F344/MALE, Route: ORAL, Dose: 0, 2% IN DIET FOR 104 WK (STUDY DURATION: 104 WK), Tumor Site: Type of Lesion: FORESTOMACH: PAPILLOMA, SQUAMOUS CELL CARCINOMA, GLANDULAR STOMACH: ADENOMA, ADENOCARCINOMA", "value": "active; positive"}]}
{"smiles": "Cc1cc(N)ccc1N", "values": [{"measurement": "carcinogen call", "setting": "Species: MOUSE, Strain/Sex: B6C3F1/FEMALE, Route: ORAL, Dose: 0, 0.06, 0.1% OF DIET, TWA, Dose: 0, 0.06, 0.1% OF DIET, TWA", "value": "inactive; negative"}, {"measurement": "carcinogen call", "setting": "Species: MOUSE, Strain/Sex: B6C3F1/MALE, Route: ORAL, Dose: 0, 0.06, 0.1% OF DIET, TWA, Dose: 0, 0.06, 0.1% OF DIET, TWA", "value": "inactive; negative"}, {"measurement": "carcinogen call", "setting": "Species: RAT, Strain/Sex: F344/FEMALE, Route: ORAL, Dose: 0, 0.06, 0.2% OF DIET, TWA, Dose: 0, 0.06, 0.2% OF DIET, TWA", "value": "inactive; negative"}, {"measurement": "carcinogen call", "setting": "Species: RAT, Strain/Sex: F344/MALE, Route: ORAL, Dose: 0, 0.06, 0.2% OF DIET, TWA, Dose: 0, 0.06, 0.2% OF DIET, TWA", "value": "inactive; negative"}]}
{"smiles": "C=CCN(N)CC=C", "values": [{"measurement": "carcinogen call", "setting": "Species: MOUSE, Strain/Sex: SWISS/FEMALE, Route: ORAL, Dose: 0.03125% IN DRINKING WATER FOR LIFE, Tumor Site: Type of Lesion: LUNG: ADENOMA, ADENOCARCINOMA", "value": "active; positive"}, {"measurement": "carcinogen call", "setting": "Species: MOUSE, Strain/Sex: SWISS/MALE, Route: ORAL, Dose: 0.03125% IN DRINKING WATER FOR LIFE, Tumor Site: Type of Lesion: LUNG: ADENOMA, ADENOCARCINOMA, FORESTOMACH: SQUAMOUS CELL PAPILLOMA, CARCINOMA", "value": "active; positive"}]}
{"smiles": "CCOP(=O)(NC(C)C)Oc1ccc(SC)c(C)c1", "note": "(stereo unspecified)", "values": [{"measurement": "carcinogen call", "setting": "Species: Mouse, Strain/Sex: CD-1/Female (50/Group), Route: Oral, Dose: 0, 2, 10, 50 ppm of 89.2-90.5% fenamiphos in diet for 20 mo, study duration 20 mo, Dose: 0, 2, 10, 50 ppm of 89.2-90.5% fenamiphos in diet for 20 mo, study duration 20 mo", "value": "inactive; negative"}, {"measurement": "carcinogen call", "setting": "Species: Mouse, Strain/Sex: CD-1/Male (50/Group), Route: Oral, Dose: 0, 2, 10, 50 ppm of 89.2-90.5% fenamiphos in diet for 20 mo, study duration 20 mo, Dose: 0, 2, 10, 50 ppm of 89.2-90.5% fenamiphos in diet for 20 mo, study duration 20 mo", "value": "inactive; negative"}, {"measurement": "carcinogen call", "setting": "Species: Rat, Strain/Sex: Strain not specified/Female (50/Group), Route: Oral, Dose: 0, 2, 10, 50 ppm Nemacure (89% fenamiphos) in diet for 2 yr, study duration 2 yr, Dose: 0, 2, 10, 50 ppm Nemacure (89% fenamiphos) in diet for 2 yr, study duration 2 yr", "value": "inactive; negative"}, {"measurement": "carcinogen call", "setting": "Species: Rat, Strain/Sex: Strain not specified/Male (50/Group), Route: Oral, Dose: 0, 2, 10, 50 ppm Nemacure (89% fenamiphos) in diet for 2 yr, study duration 2 yr, Dose: 0, 2, 10, 50 ppm Nemacure (89% fenamiphos) in diet for 2 yr, study duration 2 yr", "value": "inactive; negative"}]}
{"smiles": "OCC(Cl)(Cl)Cl", "values": [{"measurement": "carcinogen call", "setting": "Species: MOUSE, Strain/Sex: B6C3F1/FEMALE, Route: INTRAPERITONEAL, Dose: 0, 1000 NMOL TOTAL DOSE, 1/3 AND 2/3 OF THE TOTAL DOSE ADMINISTERED AT 8 AND 15 DAYS OF AGE RESPECTIVELY, ANIMALS TERMIN", "value": "inactive; negative"}, {"measurement": "carcinogen call", "setting": "Species: MOUSE, Strain/Sex: B6C3F1/FEMALE, Route: INTRAPERITONEAL, Dose: 0, 2000 NMOL TOTAL DOSE, 3/7 AND 4/7 OF THE TOTAL DOSE ADMINISTERED AT 8 AND 15 DAYS OF AGE RESPECTIVELY, ANIMALS TERMIN", "value": "inactive; negative"}, {"measurement": "carcinogen call", "setting": "Species: MOUSE, Strain/Sex: B6C3F1/MALE, Route: INTRAPERITONEAL, Dose: 0, 1000 NMOL TOTAL DOSE, 1/3 AND 2/3 OF THE TOTAL DOSE ADMINISTERED AT 8 AND 15 DAYS OF AGE RESPECTIVELY, ANIMALS TERMIN", "value": "inactive; negative"}, {"measurement": "carcinogen call", "setting": "Species: MOUSE, Strain/Sex: B6C3F1/MALE, Route: INTRAPERITONEAL, Dose: 0, 2000 NMOL TOTAL DOSE, 3/7 AND 4/7 OF THE TOTAL DOSE ADMINISTERED AT 8 AND 15 DAYS OF AGE RESPECTIVELY, ANIMALS TERMIN", "value": "inactive; negative"}]}
